In experiment [1] the target is T1, NF-κB (Homo sapiens, UniProt P19838+Q04206).
T1 construct: nuclear protein extracts from myometrial cells; endogenous in cells; host or cells: primary human myometrial cells (term, passage 1-4)
Nature of the experiment: EMSA of NF-κB DNA binding in nuclear extracts of treated amnion cells. As to conditions: L− and L+ amnion cells, treated 2 h, then IL-1β 15 min. Type of experiment: cell-based. The method, then: Placentae were obtained from patients at term either at elective Caesarean section prior to labour (L−) or following spontaneous labour onset and vaginal delivery (L+). Amnion cells were prepared as described in Bennett et al., (1989). Briefly, the amnion was separated from the placenta, washed 3× in PBS, cut into strips, and incubated in 0.5 mM EDTA in PBS for 15 min. The strips were washed in PBS 2× and digested with 2.5 mg/ml dispase in serum-free DMEM for 35 min at 37° C. The amnion was then shaken vigorously in DMEM, 10% FCS to dissociate the cells, the remaining strips discarded, and the cell suspension pelleted at 175 g for 10 min and cultured in DMEM, 10% FCS (Sigma), 1% L-glutamine, 1% penicillin-streptomycin.
(§1) Nuclear and cytosolic protein extracts were obtained from cultured amnion cells as described by Schreiber et al (1989). For nuclear/cytosolic fractionation, confluent cell monolayers were scraped and lysed using a buffer containing 10 mM HEPES, 10 mM KCl, 0.1 mM EDTA, 0.1 mM EGTA, 2 mM DTT, 1% (v/v) NP-40 and complete protease inhibitor tablets (CPIs, Roche), diluted to manufacturer's instructions. Cell lysates were incubated on ice for 10 min and NP-40 added to a final concentration of 1% (v/v). Lysates were vortexed for 10 secs and centrifuged for 30 secs at 4° C., 12000 g. The supernatants were retained as the cytosolic protein extracts. The pellets were resuspended in buffer containing 10 mM HEPES, 10 mM KCl, 0.1 mM EDTA, 0.1 mM EGTA, 2 mM DTT, 400 mM NaCl, 1% NP-40 (v/v) and CPIs. Samples were shaken vigorously for 15 min in an ice bath. The nuclear protein extracts were obtained in the supernatant following a 5 min centrifugation at 4° C., 12000 g.
Sense and antisense strands (175 nmole/ml each) were incubated in annealing buffer (10 mM Tris-HCl pH7.5, 100 mM NaCl, 1 mM EDTA) for 10 min at 65° C., and allowed to cool at room temperature for 2 h. 3.5 pmole double-stranded oligonucleotides were end-labelled with 0.37 MBq ^32P(γATP) by incubating for 30 min at 37° C. with T4 polynucleotide kinase. Labelled oligonucleotides were recovered by centrifugation at 3000 rpm for 2 min through MicroSpin G-25 or G-50 sephadex columns (Amersham Biosciences).
3-5 μg protein extracts were incubated on ice for 1 h with non-radiolabelled non-specific oligonucleotide (poly(dI-dC) or Oct-1) in a binding buffer (20% (v/V) glycerol, 5 mM MgCl2, 2 mM EDTA, 50 mM Tris-HCl pH7.5, 250 mM NaCl, 2 mM DTT), followed by a 45 min incubation with 0.035 pmole ^32P(γ(ATP)-end labelled oligonucleotide probes:
Oct-1 or SP-1 consensus sequences were used as a controls for a NF-κB-specific effect. The resulting protein/DNA complexes were separated in a 4% acrylamide gel, the gel dried under vacuum at 80° C. and exposed to X-ray film. For supershift analysis, samples were incubated with 2 μg antibodies for 30 min on ice prior to incubation with oligonucleotides. Non-radio-labelled oligonucleotides were used at 100-fold molar excess for specific and non-specific competition for DNA binding. Reagents for EMSA were obtained from Promega Life Sciences, Delta House, Chilworth Research Centre, Southampton SO16 7NS, United Kingdom.

In experiment [2] the test system is NF-κB. Description: Western immunoblot of p65, p50, IκB in myometrial cell extracts. Type of experiment: cell-based, human. Particulars: myometrial cells; for IL-1β-induced p65 nuclear translocation: treated 2 h. The method, then:
Western immunoblots of nuclear or cytosolic protein extracts from (A) myometrial cells, (B) L− amnion cells, and (C) L+ amnion cells treated with 15dPGJ2 or vehicle for 2 h±IL-1β stimulation (15 min). Blots probed with antibodies against p65, p50 or IκBα.
Western immunoblots of nuclear or cytosolic protein extracts from myometrial cells treated with PGA1 or vehicle for 2 h followed by IL-1β stimulation (15 min). Blots probed with antibodies against p65 or IκBa.
Western immunoblots of cytosolic extracts from myometrial cells (A) treated with 15dPGJ2 for 2h±IL1b for 15 min; probed for IKK, and (B) treated with […] 15dPGJ2, […] MG132 or vehicle for 2 h, ±IL-1β for 15 min; probed for IκBα.
(A) NF-κB-DNA binding was measured by EMSA in nuclear protein extracts from myometrial cells pre-treated with vehicle, 15d-PGJ2 or PGA1 for 2 h, followed by stimulation with IL-1β (1 ng/ml) for 15 min. Antibodies against p50 and p65 were used for supershift analysis. (B) Myometrial cells were transiently transfected with a NF-κB-LUC reporter and a β-gal reporter plasmid, pre-treated with vehicle or PGA1 for 2 h, and stimulated with IL-1β (1 ng/ml) for 6 h. Luciferase activity was normalized for β-gal reporter readout. Values are presented as the mean±SEM obtained for each treatment done in triplicate. Western blot analysis of nuclear p65 and p50 expression in myometrial cells treated with (C) PGA1 or (D) 15d-PGJ2 for 2 h, followed by stimulation with IL-1β (1 ng/ml) for 15 min. (E) Western blot analysis of whole cell lysates from myometrial cells treated with 15d-PGJ2 or 9,10-dihydro-15d-PGJ2 for 2 h, followed by stimulation with IL-1β (1 ng/ml) for 15 min. Membranes were probed with antibodies against p65 and Ser 536-phosphorylated p65.
Myometrial tissue was collected at term from the upper margin of uterine incision at the time of lower segment caesarean section either prior to the onset of labour (L−) or […] (L+). L+ samples were collected by Dr Mark Johnson and Dr S Soorrana at Chelsea & Westminster Hospital. Myometrial tissue was dissected, rinsed in PBS, and digested in serum-free DMEM containing 15 mg/ml collagenase 1A (Sigma), 15 mg/ml collagenase X, and 50 mg/ml bovine serum albumin for 45 min at 37° C. The cell suspension was filtered through a cell strainer, centrifuged at 400 g for 5 min, and the pellet re-suspended and plated out in DMEM, 10% FCS (Helena BioScience), 1% L-glutainine, 1% penicillin-streptomycin. Cells were used between passage numbers 1-4.
as §1
Protein samples (20-70 μg) were mixed with Laemmli sample buffer (1:1) containing β-mercaptoethanol (5%), and boiled for 5 min. Proteins were then separated by SDS-PAGE (12-14% gels) and transferred onto PVDF membrane (Amersham Pharmacia Biotech). The membranes were blocked overnight in 5% non-fat milk prepared in PBS-T buffer, at 4° C. The blots were incubated with the primary antibody in 1% non-fat milk in PBS-T buffer for 1 h, and washed three times (10 min each) in PBS-T with vigorous shaking. […]

“Also recorded” adds a separate entry of the source.

Experimental findings from patent US20070282004A1, “Use of a Cyclopentenone Prostaglandin for Delaying for the Onset and/or Preventing the Continuation of Labour” (Imperial College Innovations Limited, priority 2003, published 2007) are described below.

T1 sequence (Q04206 whole entry): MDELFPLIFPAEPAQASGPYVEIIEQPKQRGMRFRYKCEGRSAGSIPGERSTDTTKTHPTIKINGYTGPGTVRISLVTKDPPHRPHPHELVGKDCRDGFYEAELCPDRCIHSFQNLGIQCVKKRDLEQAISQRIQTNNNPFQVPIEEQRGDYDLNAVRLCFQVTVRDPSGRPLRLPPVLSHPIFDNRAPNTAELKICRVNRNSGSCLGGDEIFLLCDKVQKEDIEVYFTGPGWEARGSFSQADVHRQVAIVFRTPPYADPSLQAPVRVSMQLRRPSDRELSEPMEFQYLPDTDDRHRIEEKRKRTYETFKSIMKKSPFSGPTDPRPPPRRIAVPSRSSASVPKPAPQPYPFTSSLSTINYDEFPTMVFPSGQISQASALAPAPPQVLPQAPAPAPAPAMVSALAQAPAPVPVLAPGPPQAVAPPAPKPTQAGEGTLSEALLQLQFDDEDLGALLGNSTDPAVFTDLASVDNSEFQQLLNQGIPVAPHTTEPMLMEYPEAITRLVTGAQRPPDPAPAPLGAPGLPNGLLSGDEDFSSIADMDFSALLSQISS
T1 sequence (P19838 1-433 limits assumed): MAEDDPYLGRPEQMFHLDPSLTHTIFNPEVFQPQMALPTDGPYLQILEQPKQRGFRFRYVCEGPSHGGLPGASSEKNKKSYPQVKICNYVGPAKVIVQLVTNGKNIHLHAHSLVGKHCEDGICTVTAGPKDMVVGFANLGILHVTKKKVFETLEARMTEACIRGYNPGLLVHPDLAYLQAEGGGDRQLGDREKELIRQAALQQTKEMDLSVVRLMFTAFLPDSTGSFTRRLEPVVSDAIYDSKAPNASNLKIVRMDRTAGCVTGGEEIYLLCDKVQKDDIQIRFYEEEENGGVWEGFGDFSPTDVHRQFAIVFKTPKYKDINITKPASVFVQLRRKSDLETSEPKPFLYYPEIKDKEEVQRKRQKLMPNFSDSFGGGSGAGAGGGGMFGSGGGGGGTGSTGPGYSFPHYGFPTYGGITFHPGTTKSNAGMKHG

In the case of `CCCCCC=CC=C1C(=O)C=C[C@@H]1CC=CCCCC(=O)O` [15d-PGJ2, 15-deoxy-Δ^12,14prostaglandin J2], at NF-κB [1], the “IL-1β-induced NF-κB DNA binding (EMSA)” value is “inhibited IL1-β-induced NF-κB DNA binding in a dose-dependent manner”. The “IL-1β-induced NF-κB DNA binding (EMSA)” value at NF-κB [1] (listed as 15dPGJ2) is given as “inhibition”. Also, in the experiment with NF-κB [2], the “IL-1β-induced IκBα degradation” value was “inhibition”, the “IL-1β-induced IκBβ degradation” value is given as “inhibition”, the “IL-1β-induced p50 phosphorylation” value is “inhibition” and the IκBα phosphorylation entry is recorded as “inhibits”. Also, the “Accumulation of phosphorylated IκBα” value in the experiment with NF-κB [2] (2 h, IL-1β 15 min) is on record as “not detected”. Besides, the “IL-1β-induced p65 nuclear translocation” value with NF-κB [2] (IL-1β 15 min) is “inhibited”. Moreover, in the experiment with NF-κB [2] (IL-1β 15 min, listed as 15dPGJ2), the “IL-1β-induced p65 nuclear translocation” value is reported as “inhibition”.

In the case of `CCCCC[C@H](O)/C=C/[C@H]1C=CC(=O)[C@@H]1CCCCCCC(=O)O` [PGA1, prostaglandin A1], on NF-κB [1], the “IL-1β-induced NF-κB DNA binding (EMSA)” value was “inhibition”. For the same molecule, the “IL-1β-induced IκBα degradation” value with NF-κB [2] is given as “inhibition”. For the same molecule, the “Reproduction of the effects of 15d-PGJ2 on NF-κB (incl. Ser 536-phosphorylated p65)” value in the experiment on NF-κB [2] (2 h, IL-1β 15 min, similar in amnion epithelial cells) is given as “shares the effect of 15d-PGJ2”. In addition, the “IL-1β-induced p65 nuclear translocation” value in the experiment with NF-κB [2] (IL-1β 15 min) is on record as “inhibition; also recorded: inhibited”.
